According to ChEMBL document CHEMBL3244015, “Synthesis and biological evaluation of a tetrahydroisoquinoline derivative possessing selective beta2-adrenergic agonist activity” (J Med Chem, 1977):
Activity calls are given as the source filed them. The calls are words filed in the database; no cut-off is given here.

Assays:
[1] = target: Beta-1 adrenergic receptor (Cavia porcellus) (UniProt B0FL73); experiment: Agonist activity at beta-1 adrenergic receptor in isolated guinea pig atrial preparation assessed as induction of chronotrophic response at 10^-9 to 10^-3 M; settings: Cardiac atrium
Beta-1 adrenergic receptor (Cavia porcellus), sequence (B0FL73 1-467): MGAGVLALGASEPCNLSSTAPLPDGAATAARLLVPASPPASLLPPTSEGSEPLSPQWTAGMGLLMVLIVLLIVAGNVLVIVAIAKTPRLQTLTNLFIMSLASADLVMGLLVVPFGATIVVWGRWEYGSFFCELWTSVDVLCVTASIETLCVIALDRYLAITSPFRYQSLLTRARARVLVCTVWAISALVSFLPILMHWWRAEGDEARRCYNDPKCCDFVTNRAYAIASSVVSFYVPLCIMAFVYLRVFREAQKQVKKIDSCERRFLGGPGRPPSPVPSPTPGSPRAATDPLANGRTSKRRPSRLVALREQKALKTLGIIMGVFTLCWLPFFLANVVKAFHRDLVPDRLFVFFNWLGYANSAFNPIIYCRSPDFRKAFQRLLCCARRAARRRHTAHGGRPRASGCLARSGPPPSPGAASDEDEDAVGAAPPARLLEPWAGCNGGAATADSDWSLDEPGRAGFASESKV

[2] = target: Beta-2 adrenergic receptor (Cavia porcellus) (UniProt Q8K4Z4); experiment: Agonist activity at beta-2 adrenergic receptor in isolated guinea pig trachea assessed as induction of relaxation of tracheal muscle
Beta-2 adrenergic receptor (Cavia porcellus), sequence (Q8K4Z4 whole entry, looked up): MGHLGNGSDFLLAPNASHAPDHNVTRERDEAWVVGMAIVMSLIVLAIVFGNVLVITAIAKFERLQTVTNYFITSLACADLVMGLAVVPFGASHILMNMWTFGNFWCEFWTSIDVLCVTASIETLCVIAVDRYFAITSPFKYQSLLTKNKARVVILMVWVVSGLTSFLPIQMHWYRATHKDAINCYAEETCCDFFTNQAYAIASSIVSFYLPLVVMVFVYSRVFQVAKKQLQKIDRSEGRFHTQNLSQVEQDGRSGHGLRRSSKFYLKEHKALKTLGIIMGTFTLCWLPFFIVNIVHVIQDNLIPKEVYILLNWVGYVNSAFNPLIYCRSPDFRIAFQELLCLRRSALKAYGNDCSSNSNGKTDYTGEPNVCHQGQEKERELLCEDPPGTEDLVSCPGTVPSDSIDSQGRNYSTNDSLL

[3] = target: Beta-2 adrenergic receptor (Cavia porcellus) (UniProt Q8K4Z4); experiment: Agonist activity at beta-2 adrenergic receptor in isolated guinea pig trachea assessed as induction of relaxation of tracheal muscle at 10^-9 to 10^-3 M

Activity [1] | ED50 [2] | Activity [3] | SMILES
inactive | 1 ×10⁻⁵ M | – | COc1cc(CC2CNCc3cc(O)c(O)cc32)cc(OC)c1OC (centres undefined)
Active | – | Active | COc1cc(CC(CN)c2ccc(O)c(O)c2)cc(OC)c1OC (centres undefined)
